From publication PMC2967433 (Bioconjugate chemistry, 2010)

Columns and labels:
[1] = molecular target: T1, FK506 Binding Protein 12 kDa (FKBP12) (Homo sapiens, UniProt P62942); assay: TR-FRET competition with fluorescein-labeled SLF
[2] = molecular target: T1, FK506 Binding Protein 12 kDa (FKBP12); assay: TR-FRET tracer binding

T1 sequence (P62942 2-108): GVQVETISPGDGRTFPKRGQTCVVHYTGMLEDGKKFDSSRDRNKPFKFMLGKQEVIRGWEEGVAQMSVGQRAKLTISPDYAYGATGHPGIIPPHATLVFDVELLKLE

| IC50 [1] [nM] | Molecule | Kd [2] [nM] |
| --- | --- | --- |
| 200 | CCC(C)(C)C(=O)C(=O)N1CCCC[C@H]1C(=O)O[C@H](CCc1ccc(OC)c(OC)c1)c1cccc(OCC(=O)O)c1 [SLF-OH] |  |
|  | SLF-Fl | 30 |
